What was measured:
Format in all cases: in vivo, human
Conditions in all cases: i.v. infusion over 360 min, type 2 diabetic patients
[1] = system: patients with type 2 diabetes; assay: Capillary plasma glucose during 360-min intravenous infusion
[2] = system: patients with type 2 diabetes; assay: Plasma free
[3] = system: patients with type 2 diabetes; assay: Plasma glucagon during 360-min intravenous infusion
[4] = system: patients with type 2 diabetes; assay: Insulin secretion rates by deconvolution of C-peptide

## CC[C@H](C)[C@H](NC(=O)[C@H](CO)NC(=O)[C@H](Cc1ccc(O)cc1)NC(=O)[C@H](CC(=O)O)NC(=O)[C@H](CO)NC(=O)[C@@H](NC(=O)[C@H](Cc1ccccc1)NC(=O)[C@@H](NC(=O)CNC(=O)[C@H](CCC(=O)O)NC(=O)[C@H](C)NC(=O)[C@@H](N)Cc1ccc(O)cc1)[C@@H](C)O)[C@@H](C)CC)C(=O)N[C@@H](C)C(=O)N[C@@H](CCSC)C(=O)N[C@@H](CC(=O)O)C(=O)N[C@@H](CCCCN)C(=O)N[C@H](C(=O)N[C@@H](Cc1c[nH]cn1)C(=O)N[C@@H](CCC(N)=O)C(=O)N[C@@H](CCC(N)=O)C(=O)N[C@@H](CC(=O)O)C(=O)N[C@@H](Cc1ccccc1)C(=O)N[C@H](C(=O)N[C@@H](CC(N)=O)C(=O)N[C@@H](Cc1c[nH]c2ccccc12)C(=O)N[C@@H](CC(C)C)C(=O)N[C@@H](CC(C)C)C(=O)N[C@@H](C)C(=O)N[C@@H](CCC(N)=O)C(=O)N[C@@H](CCCCN)C(=O)NCC(=O)N[C@@H](CCCCN)C(=O)N[C@@H](CCCCN)C(=O)N[C@@H](CC(N)=O)C(=O)N[C@@H](CC(=O)O)C(=O)N[C@@H](Cc1c[nH]c2ccccc12)C(=O)N[C@@H](CCCCN)C(=O)N[C@@H](Cc1c[nH]cn1)C(=O)N[C@@H](CC(N)=O)C(=O)N[C@H](C(=O)N[C@H](C(=O)N[C@@H](CCC(N)=O)C(=O)O)[C@@H](C)O)[C@@H](C)CC)C(C)C)[C@@H](C)CC [GIP, glucose-dependent insulinotropic polypeptide]
[1]
  Effect on glucose concentrations: slight reduction
[2]
  Effect on plasma concentrations of free fatty acids: did not alter
[3]
  Effect on glucagon concentrations: tended to increase slightly
[4]
  Effect on insulin secretion (words; insulin, C-peptide, insulin secretory rates): hardly did so

Source: PMC3064100 (Diabetes, 2011)
